Laboratory results from ChEMBL document CHEMBL5543158, “Design of Evodiamine-Glucose Conjugates with Improved In Vivo Antitumor Activity” (J Med Chem, 2024).
Active and inactive are the calls of the source. The rule behind the calls is not given here.

Assays:
[1] = test system: HCT-116; assay: Induction of apoptosis in human HCT116 cells assessed as accumulation of cells at G2 phase at 0.1 uM measured after 48 hrs by Annexin V-PI Flow cytometry assay (reference value: 17.63%); assay type: functional
[2] = test system: HCT-116; assay: Antiproliferative activity against human HCT116 cells in presence of 10 uM phloretin measured after 72 hrs by CCK-8 assay; assay type: functional, cell-based; details: HCT-116, 72 h
[3] = Toxicity in mouse xenografted with human HCT-116 cells assessed as organ damage by measuring change in spleen at 10 mg/kg, ip twice a day administered 21 consecutive days; assay type: organism-based; details: in vivo
[4] = Toxicity in mouse xenografted with human HCT-116 cells assessed as organ damage by measuring change in kidney at 10 mg/kg, ip twice a day administered 21 consecutive days; assay type: organism-based; details: in vivo
[5] = Unbound drug concentration in mouse plasma at 2 uM; assay type: ADME, cell-free
[6] = test system: HCT-116; assay: Antimigratory activity against human HCT116 cells assessed as inhibition of cell migration at 0.05 microM incubated for 24 hrs by wound healing assay relative to control; assay type: functional; design: scale not given: the % may be the effect or the level left
[7] = test system: A549; assay: Antiproliferative activity against human A549 cells measured after 72 hrs by CCK-8 cells; assay type: functional, cell-based; details: A549, 72 h
[8] = Cmax in mouse at 20 mg/kg, ip measured upto 24 hrs; assay type: ADME, organism-based; details: in vivo
[9] = test system: HCT-116; assay: Induction of apoptosis in 100 pmol GLUT1 siRNA treated human HCT-116 cells assessed as late apoptotic cells at 50 nM incubated for 48 hrs (reference value: 17.13%); assay type: functional
[10] = test system: HCT-116; assay: In vivo antitumor effect in human HCT-116 cells xenografted mouse model assessed as induction of apoptosis in tumor at 10 to 20 mg/kg, ip twice a day administered 21 consecutive days by TUNEL based assay; assay type: functional, organism-based; details: dose 10-20 mg/kg
[11] = test system: HCT-116; assay: Induction of apoptosis in human HCT116 cells assessed as accumulation of cells at S phase at 0.1 uM measured after 48 hrs by Annexin V-PI Flow cytometry assay (reference value: 31.25%); assay type: functional
[12] = species on record: Homo sapiens; assay: Inhibition of DNA topoisomerase 2 (unknown origin) mediated supercoiled DNA relaxation activity at 50 uM by agarose gel electrophoresis analysis
[13] = Tmax in mouse at 10 mg/kg, ip measured upto 24 hrs; assay type: ADME, organism-based; details: in vivo
[14] = test system: HCT-116; assay: Induction of apoptosis in human HCT116 cells assessed as accumulation of cells at G2 phase at 0.2 uM measured after 48 hrs by Annexin V-PI Flow cytometry assay (reference value: 17.63%); assay type: functional
[15] = Plasma protein binding mouse plasma at 2 uM; assay type: ADME, cell-free; details: read-out: PPB (converted)
[16] = biological target: T1, DNA topoisomerase 1 (Homo sapiens) (UniProt P11387); assay: Inhibition of DNA topoisomerase I (unknown origin) mediated supercoiled DNA relaxation activity at 100 uM by agarose gel electrophoresis analysis
T1 sequence (whole entry): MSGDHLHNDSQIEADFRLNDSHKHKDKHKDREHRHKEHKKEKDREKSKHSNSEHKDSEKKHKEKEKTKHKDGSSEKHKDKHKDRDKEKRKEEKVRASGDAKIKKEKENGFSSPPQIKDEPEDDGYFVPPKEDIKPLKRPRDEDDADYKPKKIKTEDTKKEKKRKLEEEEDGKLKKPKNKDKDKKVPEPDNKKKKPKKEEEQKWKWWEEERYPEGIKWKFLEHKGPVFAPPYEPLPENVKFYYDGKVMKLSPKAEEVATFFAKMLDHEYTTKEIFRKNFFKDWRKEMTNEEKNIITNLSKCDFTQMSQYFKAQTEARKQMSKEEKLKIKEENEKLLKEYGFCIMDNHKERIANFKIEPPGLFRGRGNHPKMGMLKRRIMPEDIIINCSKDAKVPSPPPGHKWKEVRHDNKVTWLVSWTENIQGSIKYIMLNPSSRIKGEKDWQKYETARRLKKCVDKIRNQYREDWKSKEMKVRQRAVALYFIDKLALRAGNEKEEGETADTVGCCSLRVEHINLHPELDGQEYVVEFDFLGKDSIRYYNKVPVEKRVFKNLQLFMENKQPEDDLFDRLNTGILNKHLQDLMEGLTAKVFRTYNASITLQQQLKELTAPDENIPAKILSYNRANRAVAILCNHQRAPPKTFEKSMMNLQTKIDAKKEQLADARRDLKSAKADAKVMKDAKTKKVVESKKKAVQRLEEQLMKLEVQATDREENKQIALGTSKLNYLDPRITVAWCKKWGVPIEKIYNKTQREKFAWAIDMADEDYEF

[17] = AUC (0 to t)in mouse at 20 mg/kg, ip measured upto 24 hrs; assay type: ADME, organism-based; details: in vivo
[18] = test system: HCT-116; assay: Induction of apoptosis in human HCT116 cells assessed as accumulation of cells at G2 phase at 0.05 uM measured after 48 hrs by Annexin V-PI Flow cytometry assay (reference value: 17.63%); assay type: functional
[19] = test system: HCT-116; assay: In vivo antitumor effect in human HCT-116 cells xenografted mouse model assessed as decrease in dense tumor tissue at 10 to 20 mg/kg, ip twice a day administered 21 consecutive days by H and E staining based assay; assay type: functional, organism-based; details: dose 10-20 mg/kg
[20] = test system: HCT-116; assay: Induction of apoptosis in human HCT116 cells assessed as accumulation of cells at S phase at 0.05 uM measured after 48 hrs by Annexin V-PI Flow cytometry assay (reference value: 31.25%); assay type: functional
[21] = test system: HCT-116; assay: Anti-invasive activity against human HCT116 cells assessed as decrease in number of cell migration into lower compartment incubated for 24 hrs by transwell assay; assay type: functional, cell-based; details: dose 0.02-0.05 µM
[22] = test system: U-87 MG; assay: Antiproliferative activity against human U-87 MG cells measured after 72 hrs by CCK-8 cells; assay type: functional, cell-based, U-87MG ATCC
[23] = test system: HCT-116; assay: In vivo antitumor effect in human HCT-116 cells xenografted mouse model assessed as inhibition of tumor cell proliferation by measuring Ki67 at 10 to 20 mg/kg, ip twice a day administered 21 consecutive days by TUNEL based assay; assay type: functional, organism-based; details: dose 10-20 mg/kg
[24] = test system: HCT-116; assay: Induction of apoptosis in human HCT116 cells assessed as accumulation of cells at S phase at 0.2 uM measured after 48 hrs by Annexin V-PI Flow cytometry assay (reference value: 31.25%); assay type: functional
[25] = test system: HCT-116; assay: Induction of apoptosis in human HCT116 cells assessed as accumulation of cells at G1 phase at 0.05 uM measured after 48 hrs by Annexin V-PI Flow cytometry assay (reference value: 51.12%); assay type: functional
[26] = Toxicity in mouse xenografted with human HCT-116 cells assessed as organ damage by measuring change in liver at 10 mg/kg, ip twice a day administered 21 consecutive days; assay type: organism-based; details: in vivo
[27] = test system: HCT-116; assay: Antimigratory activity against human HCT116 cells assessed as wound healing rate at 0.05 to 0.002 microM incubated for 24 hrs by wound healing assay (reference value: 62%); assay type: functional; details: dose 0.05-0.002 µM, at 0.002 to 0.05 µM

For CN1c2ccc(F)cc2C(=O)N2CCc3c([nH]c4ccc(O[C@@H]5O[C@H](CO)[C@@H](O)[C@H](O)[C@H]5O)cc34)[C@H]21, the Activity [1] was 88.98%, the IC50 [2] was 430 nM and the Activity [3] was “Non-Toxic”. For the same molecule, the Activity [4] was “Non-Toxic”, the “Cp(f)” value [5] was 85.1 ng/mL and the Activity [6] was 100%. For the same molecule, the IC50 [7] was 64 nM, the Cmax [8] was 8840 ng/mL and the Activity [9] was 21.75%. For the same molecule, the Activity [10] was “Active”, the Activity [11] was 9.44% and the inhibition [12] was “Active”. The Tmax [13] was 30 min, the Activity [14] was 92.85% and the fraction unbound at 2 µM [15] was 0.101. The inhibition [16] was “Active”, the AUC(0-t) at 24 h [17] was 8430 ng·h/mL and the Activity [18] was 57.53%. The Activity [19] was “Active”, the Activity [20] was 32% and the Activity [21] was “Dose-Dependent Effect”. For the same molecule, the IC50 [22] was 64 nM, the Activity [23] was “Active” and the Activity [24] was 5.6%. The Activity [25] was 10.48%, the Activity [26] was “Non-Toxic” and the Activity [27] was 1.1%.
